Like-named read-outs stand apart in the source and are kept apart here.
How the values were obtained:
[1] = Liver microsomal stability in human; assay type: in vitro ADME; conditions: human liver microsomes, 0.5 mg protein/mL, 1 μM compound, 37° C.
Method: (§1) Experimental Example 2: Evaluation on Liver Microsomal Stability of the Compound Disclosed Herein in Human/Canine
(§2) An appropriate amount of the compound was precisely weighed and dissolved in DMSO to prepare a 5.0 mM stock solution. 5.0 mM stock solution was diluted to 1.0 mM with DMSO, and then diluted with water to 10 μM, serving as a compound working solution for later use (DMSO content in the reaction system: 0.1% v/v).
(§3) • (1) The liver microsomes (20 mg protein/mL) were taken from a −80° C. refrigerator, pre-incubated on a 37° C. water bath thermostatic oscillator for 3 min, and thawed for use. • (2) A mixed incubation system solution (without compounds or β-NADPH) was prepared according to the proportion of “composition of the incubation system” described above and pre-incubated on a 37° C. water bath thermostatic oscillator for 2 min. • (3) Control group (without β-NADPH): 30 μL of water and 30 μL of compound working solution (10 μM) were added to 240 μL of the mixed incubation system solution in step (2), and the mixture was vortexed for 30 s and mixed. The total volume of the mixture was 300 μL. The sample was duplicated. The reaction solution was placed on a 37° C. water bath thermostatic oscillator for incubation, and timing was started. Samples were collected at 0 min and 60 min. • (4) Sample group: 70 μL of β-NADPH solution (10 mM) and 70 μL of compound working solution (10 μM) were added to 560 μL of the mixed incubation system solution in step (2), and the total volume of the mixture was 700 μL. The mixture was vortexed for 30 s and mixed. The sample was duplicated. The reaction solution was placed on a 37° C. water bath thermostatic oscillator for incubation, and timing was started. Samples were collected at 0 min, 5 min, 10 min, 20 min, 30 min and 60 min after timing. • (5) The reaction solution was vortexed for 3 min, and centrifuged at 12,000 rpm for 5 min. • (6) 50 μL of the supernatant was added to 150 μL of water, and the resulting solution was vortexed and mixed before LC/MS/MS analysis.
(§4) The half-life (t1/2) and clearance (Cl) were calculated using the following first-order kinetic formula:
(§5) Vd=1/protein content in liver microsomes
(§6) Note: k denotes the slope of the logarithm of the remaining amount of a compound vs. time, Vd denotes apparent volume of distribution, C0 denotes drug concentration at 0 h, Ct denotes drug concentration at time t, t denotes time, e denotes natural number, and Clint denotes intrinsic clearance.

[2] = target: T1, Peptidylarginine deiminase 4 (PAD4) (Homo sapiens, UniProt Q9UM07); experiment: Assay of enzyme-inhibiting activity (PAD4, FAM-AcH4(1-5) peptide, Caliper detection); assay type: biochemical; conditions: 10 nM PAD4, 5 μM peptide, 0.1 mM Ca2+, pH 8.0
T1 construct: purchased Cayman 10500
Method: Experimental Example 1: Assay of Enzyme-Inhibiting Activity of Compound
Sample: The compound disclosed herein prepared according to exemplary methods.
Peptidylarginine deiminase 4 (PAD4): Cayman, Cat. No. 10500, Lot. No. 0519694;
Carboxyfluorescein-labeled peptide (Peptide FAM-AcH4 (1-5)): GL Biochem, Cat. No. 0200046, Lot. No. P161110-TL545976;
An appropriate amount of the compound to be assayed was dissolved in DMSO to 10 mM. An appropriate amount of 10 mM mother liquor of the compound to be assayed was diluted to 1.5 mM with DMSO, and the solution was then serially diluted 3-fold with DMSO to give 50× concentrations of gradient compound solutions. Finally, 10-fold dilution was carried out with reaction buffer (an aqueous solution of 100 mM HEPES (2-[4-(2-hydroxyethyl)piperazin-1-yl]ethanesulfonic acid) containing 0.01% v/v Triton, pH 8.0) to give 5× concentrations of gradient compound solutions (150 μM, 50 μM, 16.667 μM, 5.556 μM, 1.852 μM, 0.617 μM, 0.206 μM, 0.069 μM, 0.023 μM, and 0.008 μM).
1) Reaction buffer: aqueous solution of 100 mM HEPES (2-[4-(2-hydroxyethyl)piperazin-1-yl]ethanesulfonic acid) containing 0.01% v/v Triton, pH 8.0;
2) Stop solution: aqueous solution of 100 mM HEPES (2-[4-(2-hydroxyethyl)piperazin-1-yl]ethanesulfonic acid) containing 0.015% w/v Brij-35, 0.2% v/v Coating Reagent (coating solution) #3 (PE, part no. 760050) and 50 mM EDTA, pH 8.0;
3) 2.5× enzyme solution: An appropriate amount of PAD4 was diluted to 2.5× (final concentration: 10 nM) with reaction buffer;
4) 2.5× polypeptide solution: An appropriate amount of carboxyfluorescein -labeled peptide (FAM-AcH4(1-5) peptide) and CaCl2) solution was diluted to 2.5× (the final concentration of polypeptide: 5 μM, the final concentration of Ca^2+: 0.1 mM) with reaction buffer.
5 μL of 5× compound solutions or solvents with different concentrations were added to a 384-well plate, 10 μL of 2.5× enzyme solution was then added, and the plate was incubated at room temperature for 10 min. 10 μL of 2.5× polypeptide solution was then added to each well, and the plate was incubated at 28° C. for a certain period of time. 25 μL of stop solution was added to stop reaction. Caliper was used for detection. The inhibition rate was calculated according to the following formula:
Inhibition percentage=(max−transformation)/(max−min)*100.
“max” denotes DMSO control; and “min” denotes low control.

[3] = Liver microsomal stability in canine; assay type: in vitro ADME; conditions: dog; canine liver microsomes, 0.5 mg protein/mL, 1 μM compound, 37° C.
Method: as §1, §2, §3, §4, §5, §6

[4] = Pharmacokinetics (PK) of the compound in rats; assay type: in vivo; conditions: rat, plasma, SD rats
Method: Experimental Example 3: Pharmacokinetics (PK) of the Compound in Rats
The test compound was dissolved in a mixture of 5% v/v DMSO+20% v/v (30% v/v solutol (polyethylene glycol-15 hydroxystearate purchased from BASF, batch no. 84773247G0))+75% v/v brine to prepare a solution, which was then administered to SD rats by oral gavage at a dose of 5.0 mg/kg. Blood samples were collected at 15 min, 30 min, 1 h, 2 h, 4 h, 6 h, 8 h and 24 h.
The test compound was dissolved in a mixture of 5% v/v DMSO+20% v/v (30% v/v solutol)+75% v/v brine to prepare a solution, which was administered to SD rats by intravenous bolus at a dose of 1 mg/kg. Blood samples were collected at 5 min, 15 min, 30 min, 1 h, 2 h, 4 h, 6 h, 8 h and 24 h.
The animals were fixed, with tails warmed in a water bath 10 min before each sampling time point. About 100 μL of blood was collected via the tail vein, and the blood samples were collected in anticoagulation tubes containing EDTA-K2. The blood samples were centrifuged at 8,000 rpm for 6 min at 4° C. to give plasma samples within 30 min after collection. The plasma samples were stored in a refrigerator at −80° C. before test.
The sample was taken out from the −80° C. refrigerator, and vortexed for 5 min after naturally thawed at room temperature. 20 μL of plasma sample was pipetted into a 1.5 mL centrifuge tube, and 200 μL of 100 ng/mL internal standard working solution (a solution of tolbutamide in methanol) was added. The resulting mixture was mixed, vortexed for 5 min, and then centrifuged at 12,000 rpm for 5 min. 50 μL of the supernatant was pipetted into a 96-well plate with 150 μL of water per well, and the plate was vortexed for 5 min before LC-MS/MS analysis.
The concentration was calculated by Analyst 1.6.3 from AB Sciex. Parameters such as mean, standard deviation and coefficient of variation (excluding those output directly by Analyst 1.6.3) were calculated by Microsoft Excel. PK parameters were calculated by Pharsight Phoenix 6.1 software NCA (Tmax was in median).

T1 sequence (Q9UM07 whole entry): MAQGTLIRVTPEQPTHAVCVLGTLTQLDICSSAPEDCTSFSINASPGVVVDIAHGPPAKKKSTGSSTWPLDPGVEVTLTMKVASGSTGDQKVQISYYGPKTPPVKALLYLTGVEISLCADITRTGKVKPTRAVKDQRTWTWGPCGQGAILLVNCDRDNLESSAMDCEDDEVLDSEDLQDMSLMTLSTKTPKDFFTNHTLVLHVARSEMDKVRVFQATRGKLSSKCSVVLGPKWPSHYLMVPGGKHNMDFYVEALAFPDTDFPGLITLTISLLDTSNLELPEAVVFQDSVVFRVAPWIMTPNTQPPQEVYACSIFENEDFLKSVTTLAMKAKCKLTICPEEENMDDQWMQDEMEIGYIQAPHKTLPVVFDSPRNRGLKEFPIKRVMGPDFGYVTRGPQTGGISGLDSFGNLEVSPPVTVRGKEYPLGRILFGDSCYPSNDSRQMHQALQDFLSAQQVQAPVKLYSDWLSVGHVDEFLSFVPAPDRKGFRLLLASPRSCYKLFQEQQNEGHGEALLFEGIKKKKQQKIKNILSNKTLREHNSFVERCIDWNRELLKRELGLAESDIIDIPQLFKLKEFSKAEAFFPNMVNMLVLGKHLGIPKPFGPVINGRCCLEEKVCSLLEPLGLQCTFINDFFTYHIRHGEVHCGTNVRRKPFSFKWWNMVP

Row | SMILES | half-life at 1 μM [1] [h] | microsomal CLint at 1 μM [1] [µL/min/mg] | IC50 [2] [nM] | half-life at 1 μM [3] [h] | bioavailability ([4]; IV 1 mg/kg, PO 5 mg/kg, n = 3, read-out: F (absolute bioavailability)) [%] | AUC(0-t) ([4]; IV 1 mg/kg, n = 3, read-out: AUClast iv (area under concentration-time curve 0-24 h)) [ng·h/mL] | clearance ([4]; IV 1 mg/kg, n = 3, read-out: Cl_obs iv (clearance) (converted)) [mL/min/kg] | Vd ([4]; IV 1 mg/kg, n = 3, read-out: Vz_obs iv (apparent volume of distribution)) [L/kg] | half-life ([4]; IV 1 mg/kg, n = 3, read-out: tz1/2 iv (terminal half-life) (converted)) [h] | Tmax ([4]; PO 5 mg/kg, n = 3, median, read-out: Tmax po (time to maximum plasma concentration)) [h] | AUC(0-t) ([4]; PO 5 mg/kg, n = 3, read-out: AUClast po (area under concentration-time curve 0-24 h)) [ng·h/mL] | half-life ([4]; PO 5 mg/kg, n = 3, read-out: tz1/2 po (terminal half-life) (converted)) [h] | microsomal CLint at 1 μM [3] [µL/min/mg]
1 | CCn1c(-c2nc3cc(C(=O)N4CCC[C@@H](N)C4)cc(OC)c3n2C)cc2ccoc21 [Compound 4, (R)-(3-aminopiperidin-1-yl)(2-(6-ethyl-6H-furo[2,3-b]pyrrol-5-yl)-7-methoxy-1-methyl-1H-benzo[d]imidazol-5-yl)methanone] | 11.6 | 2 | 350 | 5.5 |  |  |  |  |  |  |  |  | 
2 | COc1cc(C(=O)N2CCC[C@@H](N)C2)cc2nc(-c3cc4ccoc4n3CC3CC3)n(C)c12 [Compound 24, (R)-(3-aminopiperidin-1-yl)(2-(6-(cyclopropylmethyl)-6H-furo[2,3-b]pyrrol-5-yl)-7-methoxy-1-methyl-1H-benzo[d]imidazol-5-yl)methanone] |  |  | 54 |  |  |  |  |  |  |  |  |  | 
3 | CCn1c(-c2nc3cc(C(=O)N4CCC[C@@H](N)C4)cc(OC)c3n2C)cc2cccnc21 [Compound GSK199, reference compound] | 4.45 | 5.2 | 140 | 12.8 | 33.1 | 330 | 48.2 | 6.75 | 1.63 | 4 | 496 | 2.23 | 1.8

— patent US20200407370A1, “PEPTIDYLARGININE DEIMINASE INHIBITOR AND USE THEREOF” (Nanjing Transthera Biosciences Co., Ltd., priority 2018, published 2020)
